For orientation: AC50 means the concentration giving half of the maximal activity seen. One may read the EC50 as the concentration that produces a half-maximal response.

The source of these data is ChEMBL document CHEMBL1201862, “PubChem BioAssay data set” (2004).

Each structure is given as a SMILES string. Calls of active or inactive are those of the source.

One series has as its target Cytochrome P450 2D6 (Homo sapiens, UniProt P10635).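 Also: CYP2D6 member of a cytochrome P450 panel assay.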
Another series addresses Cytochrome P450 2C19 (Homo sapiens, UniProt P33261). Briefly: Cytochrome panel assay with activity outcomes. Panel member name: p450-cyp2c19 Compounds with AC50 equal or less than 10 uM are considered active. In kind it is functional.
In another series the target is T1, Cytochrome P450 1A2 (Homo sapiens, UniProt P05177).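 Also: PubChem cytochrome P450 panel assay, CYP1A2 panel member.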
T1 sequence (P05177 whole entry): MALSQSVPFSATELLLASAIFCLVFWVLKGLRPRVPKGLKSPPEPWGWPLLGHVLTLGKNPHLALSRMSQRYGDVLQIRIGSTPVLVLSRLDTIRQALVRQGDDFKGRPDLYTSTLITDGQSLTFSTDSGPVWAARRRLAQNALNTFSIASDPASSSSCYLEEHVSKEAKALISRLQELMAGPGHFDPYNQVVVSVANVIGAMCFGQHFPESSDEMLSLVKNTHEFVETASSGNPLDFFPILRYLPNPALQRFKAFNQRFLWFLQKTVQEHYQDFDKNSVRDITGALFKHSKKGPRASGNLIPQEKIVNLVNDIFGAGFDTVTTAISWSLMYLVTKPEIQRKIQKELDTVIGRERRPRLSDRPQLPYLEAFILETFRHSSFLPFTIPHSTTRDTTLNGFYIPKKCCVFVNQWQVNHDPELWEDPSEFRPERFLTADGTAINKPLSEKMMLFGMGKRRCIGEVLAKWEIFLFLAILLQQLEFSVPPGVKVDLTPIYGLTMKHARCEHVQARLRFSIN

A further series addresses Cytochrome P450 2C9 (Homo sapiens, UniProt P11712).
A short description of series [1]: inhibitors of firefly luciferase expression or activity, dose response, H4 neuroglioma cells, luminescence (AID 1990). Format: functional, cell-based.
Series [2] is described as follows: Luminescence Cell-Based Dose Response HTS to Identify Inhibitors of 5'UTR Stem-Loop Driven Prion Protein mRNA Translation in H4 Neuroglioblastoma Cells. [Related pubchem assays: 1827 (Project Summary), 1813 (Primary HTS)]. Format: functional.
Series [3] in a line: inhibitors of SNCA 5'UTR-driven reporter translation, confirmation, H4 neuroglioma cells, luminescence (AID 1988). Format: functional, cell-based.
A short description of series [4]: Luminescence Cell-Based Dose Retest to Confirm Inhibitors of Cancer Stem Cells. [Related pubchem assays (depositor defined):AID2717, AID2721]. In kind it is functional. The conditions noted are these: Homo sapiens.
Series [5] deals with Streptococcus sp. 'group A'. The series can be described thus: growth inhibition of control SK(-) GAS strain, dose response, counter-screen for streptokinase expression inhibitor project, luminescence, kanamycin, BacTiterGlo, confirmation (AID 1900). In kind it is functional, organism-based.
The test system of a further series is Streptococcus. The series can be described thus: Group A Streptococcus viability loss, dose response, counter-screen for streptokinase expression inhibitor project, luminescence, BacTiterGlo (AID 1915).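 Also: potency for reduction of bacterial viability or growth.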 In kind it is functional, organism-based. (The purpose of a counterscreen is to sort out artefacts and off-target activity.)
The test system of the next series is INS1. The series can be described thus: beta cell apoptosis inhibitors, cytokine rescue, dose response, luminescence, retest (AID 449756).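 Also: cell death triggered by IL-1 beta plus TNF-alpha plus IFN-gamma mixture; protective hits raise ATP signal compared with cytokine alone wells.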 Format: functional, cell-based. The conditions noted are these: Rattus norvegicus.
A short description of series [6]: inhibitors of intracellular T. cruzi replication, confirmation, NIH3T3 host cells, beta-gal luminescence (AID 2044).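 Also: intracellular parasites grown in NIH/3T3 mouse fibroblasts as host cells; luminescent beta-galactosidase reporter signal from transgenic T. cruzi replicating inside host cells; inhibitors lower the luminescence signal.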 In kind it is functional, cell-based.
Series [7] can be described thus: cytotoxicity toward NIH3T3 fibroblasts, dose response, counter-screen, cell-based, ATP luminescence, mouse fibroblasts (AID 2010).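 Also: cells exposed to compound for about 90 hours before reading.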 Format: functional.

Chain of Cytochrome P450 2D6 (P10635 whole entry): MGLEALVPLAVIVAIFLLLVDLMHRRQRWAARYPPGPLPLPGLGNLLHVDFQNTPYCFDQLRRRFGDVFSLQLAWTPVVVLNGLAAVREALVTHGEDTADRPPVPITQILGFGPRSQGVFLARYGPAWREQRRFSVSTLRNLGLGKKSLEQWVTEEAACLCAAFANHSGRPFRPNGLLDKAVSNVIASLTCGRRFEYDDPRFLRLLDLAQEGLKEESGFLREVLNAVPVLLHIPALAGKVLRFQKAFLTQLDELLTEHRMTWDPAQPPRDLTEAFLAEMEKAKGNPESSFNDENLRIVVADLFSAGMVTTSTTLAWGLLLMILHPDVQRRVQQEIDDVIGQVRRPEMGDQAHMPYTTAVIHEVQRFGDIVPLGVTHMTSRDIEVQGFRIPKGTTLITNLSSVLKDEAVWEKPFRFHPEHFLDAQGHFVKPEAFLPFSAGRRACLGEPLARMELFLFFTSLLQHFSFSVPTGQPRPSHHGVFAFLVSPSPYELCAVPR
Chain of Cytochrome P450 2C19 (P33261 whole entry): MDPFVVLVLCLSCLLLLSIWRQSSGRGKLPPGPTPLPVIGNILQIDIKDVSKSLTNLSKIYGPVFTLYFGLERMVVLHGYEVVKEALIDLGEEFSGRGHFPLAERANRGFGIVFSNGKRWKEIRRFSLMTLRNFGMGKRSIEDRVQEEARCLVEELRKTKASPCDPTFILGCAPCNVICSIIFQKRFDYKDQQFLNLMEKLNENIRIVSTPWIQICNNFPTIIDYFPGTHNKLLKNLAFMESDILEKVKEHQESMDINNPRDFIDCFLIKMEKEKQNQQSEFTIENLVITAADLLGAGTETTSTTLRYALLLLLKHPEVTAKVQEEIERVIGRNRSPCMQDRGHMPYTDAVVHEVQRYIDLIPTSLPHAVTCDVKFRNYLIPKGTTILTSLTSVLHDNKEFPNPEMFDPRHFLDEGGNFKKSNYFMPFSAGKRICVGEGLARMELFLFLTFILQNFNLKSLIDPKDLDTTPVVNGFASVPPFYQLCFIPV
Chain of Cytochrome P450 2C9 (P11712 whole entry): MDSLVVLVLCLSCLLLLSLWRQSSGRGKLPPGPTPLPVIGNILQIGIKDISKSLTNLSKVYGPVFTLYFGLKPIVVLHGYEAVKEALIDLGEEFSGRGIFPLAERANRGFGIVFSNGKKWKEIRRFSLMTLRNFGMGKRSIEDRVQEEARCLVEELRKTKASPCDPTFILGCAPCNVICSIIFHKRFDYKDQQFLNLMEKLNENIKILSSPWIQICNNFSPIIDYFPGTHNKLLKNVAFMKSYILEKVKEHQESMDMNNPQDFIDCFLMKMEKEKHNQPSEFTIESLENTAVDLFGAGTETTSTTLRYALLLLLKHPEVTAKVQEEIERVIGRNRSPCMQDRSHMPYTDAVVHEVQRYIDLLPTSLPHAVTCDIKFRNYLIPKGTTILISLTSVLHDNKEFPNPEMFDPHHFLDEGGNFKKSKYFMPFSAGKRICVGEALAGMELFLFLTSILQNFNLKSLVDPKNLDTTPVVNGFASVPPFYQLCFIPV

Take `N#Cc1cccc(NC(=O)N2CCCC3(CCN(C(=O)c4ccncc4)CC3)C2)c1`: the AC50 at Cytochrome P450 2D6 is 25.1 µM (inconclusive).

With `COc1ncc2nc(-c3cccs3)c(=O)n(Cc3ccc(F)cc3)c2n1`, the AC50 on Cytochrome P450 2D6 is 0.398 µM (inconclusive). For the molecule `COc1ccc(-c2nc3cnc(N4CCNCC4)nc3n(Cc3cccc(OC)c3)c2=O)cc1`, the AC50 on Cytochrome P450 2C19 (read-out: AC50) is 39.8 µM (inconclusive); on Cytochrome P450 2D6, 39.8 µM (inconclusive); on Cytochrome P450 1A2 it was 31.6 µM (inconclusive).

Turning to `O=C1CS[C@@H](c2ccccc2Cl)c2cc(Cl)ccc2N1`, at Cytochrome P450 1A2, the AC50 was 39.8 µM (inconclusive). On to `O=c1c(Cc2ccccc2)c(O)nc2n1CCS2`, for which the AC50 on Cytochrome P450 2C19 (read-out: AC50) and on Cytochrome P450 2C9 was 14.1 µM (inconclusive) throughout. Regarding `CCN(CC)c1ccc2c(Cl)cc(=O)oc2c1`, the AC50 at Cytochrome P450 2C9 is 31.6 µM (inconclusive). `CCCn1c(-c2cccc([N+](=O)[O-])c2)nc2c1c(=O)[nH]c(=O)n2Cc1ccccc1`: the figures for the EC50 in [1], in series [2] and in series [3] were 17.5 µM (active), > 120 µM (not active) and > 120 µM (not active), respectively.

With `CC1=NN(c2nc(-c3ccc(Cl)cc3)cs2)C(=O)C1`, in series [4], the AC50 was 5.37 µM (active). Turning to `Cc1cc(C)n(-c2nc(NC(C)(C)C)nc(NC(C)(C)C)n2)n1`, the EC50 in series [5] is 0.694 µM (active); with Streptococcus, 1.72 µM (active). For the same molecule, the half-maximal activity concentration (AC50) entry at Cytochrome P450 2C19 is “inconclusive”; in the series on INS1, 3.14 µM (active); on Cytochrome P450 2C9, 8.91 µM (inconclusive). On to `O=C(Cn1ncc2c(=O)oc3ccccc3c21)N1CCCc2ccccc21`, for which the results for the EC50 in series [1], in series [2] and in series [3] were > 120 µM (not active), 6.05 µM (active) and > 120 µM (not active), respectively. For the molecule `COc1ccc(-c2ccc([C@H]3[C@@H]4C=CCC[C@@]4(C)C(=O)N3Cc3ccccc3)c(F)c2)cc1`, in the series with INS1, the AC50 is 13.2 µM (active).

Turning to `COc1ccccc1N1CCN(c2nc(C)nc3c2oc2ccccc23)CC1`, the figures for the EC50 in [1], in series [2] and in series [3] were 10.3 µM (active), 0.842 µM (active) and 0.193 µM (active), respectively. Turning to `O=C(CCc1ccc(S(=O)(=O)NC2CCCCC2)cc1)N(Cc1ccccc1)Cc1ccccc1`, the AC50 at Cytochrome P450 2D6 is 12.6 µM (inconclusive). `Cc1c(CCO)c(=O)n(C)n1C(=O)c1ccc(F)cc1`: the AC50 at Cytochrome P450 2D6 was 22.4 µM (inconclusive).

As for `CCc1c2c(nc3ccc(OC)cc13)COC2`, the half-maximal activity concentration (AC50) on Cytochrome P450 2C19 (read-out: AC50) and at Cytochrome P450 2D6 was 20 µM (inconclusive) each time.

Consider `COc1cccc2c1OC1(C)CC2NC(=O)N1Cc1ccccc1` (stereo unspecified), for which the EC50 was 21.6 µM (active) in [1], 7.38 µM (active) in [2] and 16.1 µM (active) in [3].

As for `CC(=O)NC(C)c1cc(Cl)c2cccnc2c1O` (stereo unspecified), in the series with INS1, the AC50 was 4.08 µM (active). On to `COc1ccc(CNC(=O)C(C)Sc2nc3ccccc3c(=O)n2CCCN2CCOCC2)cc1` (stereo unspecified), for which the EC50 is 23.9 µM (active) in series [1], > 120 µM (not active) in [2] and > 120 µM (not active) in series [3]. Regarding `Cc1cc(C)c2c(ccc3cccc[n+]32)c1.[O-][Cl+3]([O-])([O-])[O-]`, in the series with INS1, the AC50 was 4.61 µM (active). Consider `Fc1cccc(Cl)c1-c1nnc2ccc3ccccc3n12`, for which, in the series with INS1, the AC50 is 10 µM (active). With `c1ccc(CCc2cccnc2)nc1`, the AC50 on Cytochrome P450 2D6 is 7.94 µM (inconclusive). As for `Cc1c(C(=O)N(Cc2ccccc2)C(C)C)oc2ccc(S(=O)(=O)N3CCOCC3)cc12`, the AC50 with INS1 is 48 µM (active). In the case of `COCCn1c(=O)c(C)nc2cnc(Oc3ccc(OC)cc3)nc21`, the AC50 at Cytochrome P450 2C19 (read-out: AC50) is 39.8 µM (inconclusive); on Cytochrome P450 2C9, 20 µM (inconclusive). Turning to `CCCN(CCC)C(=S)NC(=O)c1ccc(Cl)cc1Cl`, the AC50 at Cytochrome P450 2D6 was 10 µM (inconclusive). With `CCOc1nn(-c2ccc(Cl)cc2)c(O)c1/C=N/c1ccc(O)cc1`, the AC50 on Cytochrome P450 1A2 and on Cytochrome P450 2C9 was 3.55 µM (inconclusive) throughout. As for `COc1cc(C(=O)NC(=S)NNC(=O)c2cnccn2)cc(OC)c1OC`, the AC50 with INS1 was 1.27 µM (active). For the molecule `CN(C)CCO[C@@H](c1ccc(Cl)cc1)c1ccccn1` [ROTOXAMINE], the AC50 result at Cytochrome P450 2C19 is “inconclusive”; on Cytochrome P450 2D6 it was 12.6 µM (inconclusive). For `CNCC[C@H](Oc1ccccc1C)c1ccccc1`, the AC50 on Cytochrome P450 1A2 is 15.8 µM (inconclusive).

For the molecule `O=C(N=Nc1c(O)[nH]c2ccc(Br)cc12)c1cc(-c2cccs2)nc2ccccc12`, the EC50 in series [1] was > 120 µM (not active); in series [2], 16.6 µM (active); in series [3], 9.7 µM (active); in [6], 1.41 µM (active); in series [7], > 60 µM (not active).

With `COc1c(Cl)cc(Cl)cc1CNCCNCCO`, the AC50 at Cytochrome P450 1A2 is 28.2 µM (inconclusive); on Cytochrome P450 2C9 it was 22.4 µM (inconclusive). As for `CNc1nc(NCCOC23CC4CC(CC(C4)C2)C3)nc(OCC(F)(F)F)n1`, the AC50 was 12.6 µM (inconclusive) at Cytochrome P450 1A2 and 15.8 µM (inconclusive) at Cytochrome P450 2C9.

Turning to `COc1ccc(NC(=O)N2CCC3(CC2)CCN(C(=O)c2cnccn2)CC3)cc1`, the results for the AC50 at Cytochrome P450 1A2 and on Cytochrome P450 2C9 were 10 µM (inconclusive) and 31.6 µM (inconclusive), respectively.

Regarding `Cc1ccc(C(=O)Nc2cc3c(oc2=O)CCCC3=O)cc1`, the AC50 on Cytochrome P450 2D6 was 0.01 µM (inconclusive). For `CN(Cc1ccco1)c1ncnc2ccc(-c3ccccc3C(F)(F)F)cc12`, the AC50 at Cytochrome P450 2C9 is 1 µM (inconclusive). Consider `Clc1ccccc1-c1nc(N2CCNCC2)c2ccccc2n1`, for which the AC50 on Cytochrome P450 2D6 was 31.6 µM (inconclusive).

In the case of `O=C(CSc1nc2ccccc2[nH]1)NCCN1CCCCC1`, the AC50 on Cytochrome P450 2C19 (read-out: AC50) is 22.4 µM (inconclusive); at Cytochrome P450 2D6 it was 1.78 µM (inconclusive); at Cytochrome P450 1A2 it was 0.316 µM (inconclusive). Consider `CC1CCN(C(NC(=O)c2ccco2)C(=O)c2ccccc2)CC1` (stereo unspecified), for which the AC50 on Cytochrome P450 2D6 is 15.8 µM (inconclusive).

Turning to `Cc1ccc2cc(CN(Cc3ccco3)C(=O)NC3CCCCC3)c(O)nc2c1C`, the figures for the EC50 in series [1], in series [2] and in series [3] were 15.9 µM (active), 16.4 µM (active) and 13.6 µM (active), respectively.

Turning to `COc1cccc(Nc2ncc3nc(-c4cccs4)c(=O)n(C[C@H]4CCCO4)c3n2)c1`, the AC50 at Cytochrome P450 2D6 was 15.8 µM (inconclusive). In the case of `CC1=C/C(=C(/c2ccc(O)c(C)c2)c2ccccc2C(=O)O)C=CC1=O`, on Cytochrome P450 1A2, the AC50 was 3.16 µM (inconclusive). For `O=C(CON1C(=O)c2ccccc2C1=O)c1ccccc1`, the AC50 on Cytochrome P450 2C9 was 6.31 µM (inconclusive). With `CCc1ccccc1N1C(=O)c2cccc3c(N4CCOCC4)c([N+](=O)[O-])cc(c23)C1=O`, the AC50 on Cytochrome P450 1A2 was 10 µM (inconclusive). Take `Cc1cccc(C(=O)N[C@H](C(=O)Nc2nc3ccc(S(C)(=O)=O)cc3s2)C(C)C)c1`: the EC50 in [1], in series [2] and in [3] was > 120 µM (not active) each time. `COc1ccc(OCCSc2nc[nH]n2)cc1`: the AC50 on Cytochrome P450 2C9 was 22.4 µM (inconclusive). Turning to `Clc1ccccc1-c1nccc(NCCN2CCOCC2)n1`, the AC50 at Cytochrome P450 2D6 was 12.6 µM (inconclusive).

For the molecule `C[C@@H](C(=O)NCc1ccc(S(C)(=O)=O)cc1)[C@H]1C[C@]1(C)[C@H](NC(=O)OCc1ccccc1)c1ccccc1`, the AC50 on Cytochrome P450 1A2 was 12.6 µM (inconclusive).

Turning to `CCC/C=C(\CCC)C(NC(=O)Oc1ccc(F)cc1)c1ccc(C(=O)OC)cc1` (stereo unspecified), on Cytochrome P450 2C9, the AC50 is 39.8 µM (inconclusive).

In the case of `COc1cc(C(=O)NCC(=O)N/N=C(C)\C=C\c2ccccc2)cc(OC)c1OC`, the EC50 was > 120 µM (not active) in series [1], 24.9 µM (active) in [2] and > 120 µM (not active) in [3]. On to `C/C(=N\Nc1nc(-c2ccccn2)nc2ccccc12)c1ccc(F)cc1`, for which the EC50 in series [1] is 9.76 µM (active); in [2] it was 3.74 µM (active); in series [3] it was 8.26 µM (active). Moreover, the AC50 with INS1 was 41.9 µM (active).

On to `O=C(CSc1nc(O)c2c(C(F)(F)F)cc(-c3cccs3)nc2n1)Nc1c(F)c(F)c(F)c(F)c1F`, for which the AC50 in series [4] is 1.04 µM (active). Turning to `Cc1cc(C)cc(N(C(=O)C2CCCC2)C2C=CS(=O)(=O)C2)c1` (stereo unspecified), the AC50 is 17.8 µM (inconclusive) on Cytochrome P450 2C19 (read-out: AC50) and 35.5 µM (inconclusive) at Cytochrome P450 2C9.
